Ends that are not written are not given here.
What was measured:
[1] = tested on: antigen peptide (peptide-conjugated BSA); assay: Antibody titer in blood of immunized mice by ELISA against antigen peptide; format: in vivo, mouse; details: Example 1: C57BL/6J mice, KLH-antigen complex s.c., Freund's adjuvant, serum 2 weeks after booster (total 4 weeks)
From the text: (§1) C57BL/6J male mice aged 8 weeks were purchased from Charles River Laboratories Japan, Inc. After the delivery, the mice were reared in an environment where the room temperature and the light and dark cycles were maintained, and were provided with feed and water ad libitum. As a candidate sequence leading to activation of helper T cells by MHC class II, two peptide sequences: MTGSAADTHR (SEQ ID NO: 4; hereinafter, a peptide composed of the amino acid sequence is referred to as “MTG peptide”) and RRRQASPPRR (SEQ ID NO: 5; hereinafter, a peptide composed of the amino acid sequence is referred to as “RRR peptide”), each of which is not common to VASH1 in the VASH2 sequence were selected (FIG. 1). With respect to these peptides, peptide vaccines using KLH as a carrier were constructed. Note that for the conjugation of each peptide with KLH, a glutaraldehyde method was used. When the amount of the peptide introduced into KLH was measured for each of the obtained peptide vaccines, the amount of MTG was 66 to 70 nmol/mg of the conjugate, and the amount of RRR was 62 to 76 nmol/mg of the conjugate. Subsequently, 5 μg of KLH (control) and 20 μg of each of the KLH-antigen complexes were prepared with physiological saline so that the total amount was 50 μL, respectively, whereby KLH-mixed solutions were obtained. To each of the KLH-mixed solutions (50 μL), an equal amount of complete Freund's adjuvant was added. The obtained mixture was subcutaneously administered to the mice, whereby initial immunization was carried out. After 2 weeks from the administration, booster immunization was carried out by subcutaneously administering a mixture of each of the KLH-mixed solutions (50 μL) and an equal amount of incomplete Freund's adjuvant to the mice. Further, after 2 weeks from the booster immunization (after a total of 4 weeks), an increase in the antibody titer in the blood of each of the immunized mice was verified by ELISA.
The measurement of the antibody titer by ELISA was carried out as follows. After 2 weeks from the booster immunization (after a total of 4 weeks), the blood was collected from the facial vein of each of the immunized mice, and the serum separated from the blood was subjected to ELISA. By using 50 mM carbonate buffer, peptide-conjugated BSA was prepared at 10 μg/mL, and further a recombinant VASH2 protein was prepared at 1 μg/mL, each of which was added at 50 μL/well, and the resultant was left to stand overnight at 4° C. After the solution in each well was removed, 5% skim milk was added at 150 μL/well. […] After 30 minutes, the reaction was stopped by adding 0.5 N H2SO4 at 50 μL/well, and an absorbance (450 nm) was measured using a microplate reader.

[2] = tested on: Lewis lung cancer cells (LLC); assay: Subcutaneous implant model, tumor growth inhibitory effect (LLC); format: in vivo, mouse; details: immunized C57BL/6J mice, cells implanted s.c. on day 29, measured 14 days after implantation
Description: (§2) After 2 weeks from the administration of each peptide vaccine and incomplete Freund's adjuvant in Example 1 (on day 29 after the initial peptide vaccine administration), mouse-derived tumor cells were implanted in an immunized mouse, whereby a subcutaneous implant model was prepared. Specifically, mouse lung cancer cells (Lewis lung cancer cells (LLC)) or mouse melanoma cells (B16F1) (all have C57BL/6J as a genetic background) cultured in a RPMI+10% FBS medium were collected by centrifugation, and a cell suspension (1.0×10^8 cells/mL) was prepared with a serum-free medium, and 0.1 mL (1.0×10^7 cells/animal) of the cell suspension was implanted in a right axillary subcutaneous region of a mouse using a 27G injection needle and a syringe, whereby a subcutaneous implant model of tumor cells was prepared.

[3] = tested on: mouse melanoma cells (B16F1); assay: Subcutaneous implant model, tumor growth inhibitory effect (B16F1); format: in vivo; details: immunized C57BL/6J mice, cells implanted s.c. on day 29, measured 14 days after implantation
Description: as §2

[4] = tested on: recombinant human VASH2 protein; assay: Antibody titer in blood of immunized mice by ELISA against recombinant VASH2 protein; format: in vivo, mouse; details: Example 1: C57BL/6J mice, KLH-antigen complex s.c., Freund's adjuvant, serum 2 weeks after booster (total 4 weeks)
From the text: as §1
The measurement of the antibody titer by ELISA was carried out as follows. After 2 weeks from the booster immunization (after a total of 4 weeks), the blood was collected from the facial vein of each of the immunized mice, and the serum separated from the blood was subjected to ELISA. By using 50 mM carbonate buffer, peptide-conjugated BSA was prepared at 10 μg/mL, and further a recombinant VASH2 protein was prepared at 1 μg/mL, each of which was added at 50 μL/well, and the resultant was left to stand overnight at 4° C. After the solution in each well was removed, 5% skim milk was added at 150 μL/well. After the resultant was left to stand at room temperature for 2 hours, the solution was removed, and subsequently, a serum sample diluted by 20 to 62500 times with 5% skim milk was added at 50 μL/well, and the resultant was left to stand overnight at 4° C. Subsequently, washing was carried out with PBS (200 μL/well×6 times), and thereafter, a secondary antibody (HRP-conjugated anti-Mouse IgG) diluted by 1000 times with 5% skim milk was added at 50 μL/well. After the resultant was left to stand at room temperature for 3 hours, washing was carried out with PBS (200 μL/well×3 times). Thereafter, tetramethylbenzidine (TMB) was added at 50 μL/well, and the resultant was left to stand at room temperature under light shielding. After 30 minutes, the reaction was stopped by adding 0.5 N H2SO4 at 50 μL/well, and an absorbance (450 nm) was measured using a microplate reader.

Substance: RRR peptide vaccine: RRR peptide RRRQASPPRR (SEQ ID NO: 5) conjugated with KLH as carrier by a glutaraldehyde method (also: conjugated with KLH by glutaraldehyde)
- antibody titer against the antigen peptide [1]: significant concentration-dependent increase
- tumor size (tumorigenesis), Lewis lung cancer cells [2]: could not inhibit tumorigenesis
- tumor size (tumorigenesis), B16F1 melanoma cells [3]: could not inhibit tumorigenesis
- antibody titer against the recombinant human VASH2 protein [4]: a significant increase in the antibody titer was not confirmed
